Where a SMILES comes first, the peptide text is derived from it.
Tested on: E. coli MC1061
Assay: Colony-forming units of E. coli MC1061 pUboABC after IPTG induction
Assay type: cell-based
Conditions: wild-type uboA induced, no uboD, three biological replicates
Protocol: E. coli MC1061 pUboABC and E. coli MC1061 pUboBC cultures were grown. Aliquots of the cultures were sampled prior to and after induction with 10 μM IPTG and 100 μM IPTG, and 10-fold serial dilutions were plated. Colonies were counted 16 h after incubation. […]
fold serial dilutions were spotted onto LB plates supplemented with 100 μ g/m L ampicillin and 0.2% w/v glucose. Plates were incubated for 16 hours at 37 °C before imaging.
Colony- Forming Units of E. coli MC1061 pUboABC and E. coli MC1061 pUboBC pUboABC and pUboBC were transformed into electrocompetent E. coli MC1061, plated onto LB plates supplemented with 100 μ g/ m L ampicillin and 0.2% w/v glucose, and incubated at 37 °C for 16 hours. Single colonies were inoculated into LB media supplemented with 100 μ g/ m L ampicillin and 0.2% w/v glucose and shaken at 37 °C for 16 hours. These cultures were then sub-cultured to an OD600 of 0.02 into 50 mL of LB media supplemented with 100 μg/mL ampicillin in a 250 mL flask. Ten-fold serial dilutions of the culture were plated onto LB plates supplemented with 100 μ g/ m L ampicillin and 0.2% w/v glucose. […] All plates were incubated at 37 °C for 16 hours, after which the number of colonies was counted. […]
A small quantity of DNA was used to reduce the probability of two plasmids being transformed into the same cell. […]

CC[C@H](C)[C@@H]1NC(=O)[C@H](CO)NC(=O)CNC(=O)[C@H](CC(=O)O)NC(=O)CNC(=O)CNC(=O)CC[C@@H](C(=O)N[C@@H](Cc2ccc(O)cc2)C(=O)N[C@@H](Cc2ccccc2)C(=O)N[C@@H](CC(N)=O)C(=O)N[C@@H](CCCNC(=N)N)C(=O)N2CCC[C@H]2C(=O)N[C@@H](CCSC)C(=O)N[C@@H](Cc2c[nH]cn2)C(=O)N[C@H](C(=O)N[C@@H](Cc2c[nH]cn2)C(=O)N[C@@H](CC(=O)O)C(=O)N[C@@H](Cc2c[nH]c3ccccc23)C(=O)N[C@@H](CCC(N)=O)C(=O)N[C@H](C(=O)N[C@@H](CCSC)C(=O)N[C@@H](CC(=O)O)C(=O)N[C@@H](CO)C(=O)NCC(=O)N[C@@H](Cc2ccc(O)cc2)C(=O)N[C@@H](Cc2ccc(O)cc2)C(=O)NCC(=O)O)[C@@H](C)CC)[C@@H](C)CC)NC(=O)[C@H](C)NC1=O [WT, ubonodin] (HELM PEPTIDE1{G.G.D.G.S.I.A.E.Y.F.N.R.P.M.H.I.H.D.W.Q.I.M.D.S.G.Y.Y.G}$PEPTIDE1,PEPTIDE1,1:R1-8:R3$$$V2.0; C-terminus assumed)
Reduction in viable cell concentration (CFU per mL) after IPTG induction: 3 log

Source: publication PMC10037499, “High-Throughput Screen Reveals the Structure–Activity Relationship of the Antimicrobial Lasso Peptide Ubonodin” (ACS Central Science, 2023)
